{"source": "patent US20050288215A1", "about": "“Inhibition of nuclear export as a treatment for cardiac hypertrophy and heart failure” (priority 2004, published 2005)", "type_in_all_cases": "cell-based", "key": {"[1]": {"tested_on": "neonatal rat ventricular myocytes (NRVM)", "experiment": "ANF protein by indirect immunofluorescence (perinuclear ANF)", "set-up": "key to Perinuclear ANF: +, presence; −, absence", "settings": "for Perinuclear ANF: LMB 18.5 nM", "method": "(§1) Neonatal rat ventricular myocyte (NRVM) preparation and culture. Hearts were dissected from 1 to 3 day-old Sprague-Dawley rats, minced, and digested with collagenase (Worthington; […]) and pancreatin (Sigma; 1× activity equivalent) in 1× Ads buffer (NaCl [116 mM], HEPES [20 mM; pH 7.4], NaH2PO4 [4.8 mM], KCl [5 mM], MgSO4 [[…]], and glucose [5.5 mM]). Cells were centrifuged through a step gradient of Percoll (Pharmacia) to separate myocytes from fibroblasts, and the myocyte pool was further enriched by pre-plating for 2 hours to remove adherent fibroblasts from the cell population. Cells were cultured overnight on dishes coated with gelatin (Sigma; 0.2%) in DMEM containing fetal bovine serum (FBS) (10%), L-glutamine (2 mM), and penicillin-streptomycin. After overnight culture, cells were washed with serum-free medium and maintained in DMEM supplemented with Neutridoma-SP (Roche Applied Science), which contains albumin, insulin, transferrin, and other defined organic and inorganic compounds, at either 0.1% or 0.3% v/v, as indicated.\nIndirect immunofluorescence. NRVM (2.5×105) were plated on gelatin-coated 6-well dishes. Following the indicated treatments, cells were fixed with formalin (10%) in PBS, permeablized and blocked with PBS containing NP-40 (0.1%) and bovine serum albumin (BSA) (3%), and incubated in the same solution, but with primary antibodies for sarcomeric α-actinin (Sigma, mouse monoclonal; 1:200 dilution) or atrial natriuretic factor (ANF) (Peninsula Labs, rabbit polyclonal; 1:200 dilution). Cells were washed five times with PBS and incubated with fluorescein- or cy3-conjugated secondary antibodies (Jackson Labs, goat polyclonal; 1:200 dilution), followed by a brief incubation with Hoechst dye (Molecular Probes). Cells were washed five times in PBS, one time with water and sequentially covered with mounting solution (Molecular Probes, SlowFade) and glass coverslips. Proteins were visualized with an inverted fluorescence microscope (Olympus, BH-2) at 40× magnification and images captured using a digital camera (Roper Scientific, Photometrics)."}, "[2]": {"tested_on": "neonatal rat ventricular myocytes (NRVM)", "experiment": "Toxicity: adenylate kinase (AK) release into culture medium", "settings": "48 hours, LMB 18.5 nM (FIG. 6)", "method": "as §1, with “After overnight culture, cells were washed with serum-free medium and maintained in DMEM supplemented with Neutridoma-SP (Roche Applied Science), which contains albumin, insulin, transferrin, and other defined organic and inorganic compounds, at either 0.1% or 0.3% v/v, as indicated.” left out\nToxicity measurements. Adenylate kinase (AK) was measured in culture supernatants employing the bioluminescent ToxiLight kit (BioWhittaker) according to the manufacturer's instructions. Assays were run in a 96-well format and values measured using a Fusion Plate Reader (Perkin Elmer/Packard). Cell viability was also assessed using the LIVE/DEAD Viability/Cytotoxicity Kit (Molecular Probes). […]"}, "[3]": {"tested_on": "neonatal rat ventricular myocytes (NRVM)", "experiment": "α- and β-myosin heavy chain cytoblot assay", "method": "as §1\nα- and β-myosin heavy chain cytoblot assay. […] Cells were washed three times with PBS containing BSA (1%), luminol (Pierce) was added, and luminescence detected using a Fusion Plate Reader (Perkin Elmer/Packard)."}, "[4]": {"tested_on": "neonatal rat ventricular myocytes (NRVM)", "experiment": "SERCA2 immunoblot analysis", "settings": "48 hours, LMB 18.5 nM (FIG. 8)", "method": "as §1\nSERCA and MCIP immunoblot analysis. […] Protein concentrations were determined by Bradford Assay (Bio-Rad) and […] total protein resolved by SDS-PAGE with gradient gels (Invitrogen; 4%-20% polyacrylamide). […]"}, "[5]": {"tested_on": "neonatal rat ventricular myocytes (NRVM)", "experiment": "ANF competition ELISA, secreted ANF in culture supernatants", "set-up": "ANF induction (secreted ANF in culture supernatants): dose or concentration left out as unconfirmed", "settings": "48 hrs", "method": "as §1, with “After overnight culture, cells were washed with serum-free medium and maintained in DMEM supplemented with Neutridoma-SP (Roche Applied Science), which contains albumin, insulin, transferrin, and other defined organic and inorganic compounds, at either 0.1% or 0.3% v/v, as indicated.” left out\n(§2) ANF competition ELISA and total protein measurements. […] Wells were washed 5× with TBS-T and exposed to TMB substrate (Kirkegaard & Perry; […]), which provides a colorimetric readout, for 30 minutes at room temperature. Reactions were terminated with H2SO4 (2N, […]) and absorbance at 450 nm detected using a Fusion Plate Reader (Perkin Elmer/Packard). […] Color development was allowed to proceed for 30 minutes prior to being measured at 595 nm using a micro-titer plate spectrophotometer (Molecular Devices)."}, "[6]": {"tested_on": "neonatal rat ventricular myocytes (NRVM)", "experiment": "Cell volume measurements by Coulter Counter", "settings": "48 hours", "method": "as §1\nCell volume measurements. Three-dimensional measurements of isolates NRVM were conducted using a Coulter Model Z2 instrument (Beckman), as previously described (Said et al., 2004). […] Cell volumes are expressed as […]."}, "[7]": {"tested_on": "neonatal rat ventricular myocytes (NRVM)", "experiment": "Sarcomere organization, α-actinin indirect immunofluorescence", "set-up": "key: +, organized sarcomeres; −, disorganized sarcomeres", "settings": "48 hrs, LMB 18.5 nM", "method": "as §1\nIndirect immunofluorescence. NRVM (2.5×105) were plated on gelatin-coated 6-well dishes. […] Proteins were visualized with an inverted fluorescence microscope (Olympus, BH-2) at 40× magnification and images captured using a digital camera (Roper Scientific, Photometrics)."}, "[8]": {"tested_on": "neonatal rat ventricular myocytes (NRVM)", "experiment": "RNA dot blot analysis of fetal cardiac gene transcripts", "settings": "48 hrs, LMB 18.5 nM (FIG. 2)", "method": "as §1\nRNA analysis. NRVM were plated on gelatin-coated 10 cm dishes (2×10^6 cells/dish). Following the indicated treatments, RNA was isolated from cardiomyocytes using Trizol Reagent (Gibco/BRL). Total RNA ([…]) was vacuum blotted onto nitrocellulose membranes (Bio-Rad) using a 96-well format dot blotter (Bio-Rad). Membranes were blocked in 4×SSC containing SDS (1%), 5× Denhardt's Reagent, sodium pyrophosphate (0.05%), and […] sonicated salmon sperm DNA (4 hrs at […]) and incubated with ^32P-end-labeled oligonucleotide probes (1×10^6 cpm/ml; 14 hrs at […]). Sequences of oligonucleotides were as follows: ANF, 5′-[…]-3; a-SK-actin 5′-[…]-3′; a-MHC 5′-[…]-3′; b-MHC 5′-[…]-3′; GAPDH 5′-[…]-3′). Blots were washed twice with 0.5×SSC containing SDS (0.1%; 10 minutes at […]) and analyzed by autoradiography."}, "[9]": {"tested_on": "neonatal rat ventricular myocytes (NRVM)", "experiment": "Viability: calcein AM / ethidium staining (LIVE/DEAD kit)", "set-up": "key to Calcein Fluorescence / Ethidium Fluorescence: +, fluorescence; −, no fluorescence", "settings": "for Calcein Fluorescence / Ethidium Fluorescence: PE (20 μM), 48 hrs", "method": "as §1\nToxicity measurements. Adenylate kinase (AK) was measured in culture supernatants employing the bioluminescent ToxiLight kit (BioWhittaker) according to the manufacturer's instructions. Assays were run in a 96-well format and values measured using a Fusion Plate Reader (Perkin Elmer/Packard). Cell viability was also assessed using the LIVE/DEAD Viability/Cytotoxicity Kit (Molecular Probes). This kit employs calcein AM fluorescent dye, which is retained by viable cells, and an ethidium homodimer, which only enters cells with damaged membranes."}, "[10]": {"tested_on": "neonatal rat ventricular myocytes (NRVM)", "experiment": "Total cellular protein by Bradford assay", "method": "as §1, with “After overnight culture, cells were washed with serum-free medium and maintained in DMEM supplemented with Neutridoma-SP (Roche Applied Science), which contains albumin, insulin, transferrin, and other defined organic and inorganic compounds, at either 0.1% or 0.3% v/v, as indicated.” left out\nas §2"}}, "data": [{"smiles": "CCC(=C/[C@H](C)C/C=C/C(C)=C/[C@@H](C)C(=O)[C@@H](C)[C@H](O)[C@@H](C)C/C(C)=C/C(=O)O)/C=C/[C@@H]1OC(=O)C=C[C@@H]1C", "note": "[LMB, leptomycin B]", "values": [{"measurement": "ANF immunostaining", "setting": "[1]; NRVM stimulated with PE or FBS, LMB present", "value": "markedly reduced"}, {"measurement": "ANF expression induced by prostaglandin F2a and endothelin-1", "setting": "[1]; NRVM, immunofluorescence, LMB 18.5 nM (Table 3)", "value": "efficiently blocked ANF expression"}, {"measurement": "Perinuclear ANF", "setting": "[1]; NRVM, stimulus ET-1 (50 nM)", "value": "−"}, {"measurement": "Perinuclear ANF", "setting": "[1]; NRVM, stimulus FBS (5%)", "value": "−"}, {"measurement": "Perinuclear ANF", "setting": "[1]; NRVM, stimulus PE (20 μM)", "value": "−"}, {"measurement": "Perinuclear ANF", "setting": "[1]; NRVM, stimulus PGF2a (10 μM)", "value": "−"}, {"measurement": "Adenylate kinase (AK) in culture medium", "setting": "[2]", "value": "did not increase AK"}, {"measurement": "PE-induced β-MyHC protein expression", "setting": "[3]; 48 hrs, LMB 18.5 nM (FIG. 3)", "value": "repressed"}, {"measurement": "T3-mediated coordinate regulation of α- and β-MyHC protein expression", "setting": "[3]; T3 (3 nM), 48 hours, LMB 18.5 nM (FIG. 7)", "value": "no significant effect"}, {"measurement": "PE-induced downregulation of SERCA2 expression", "setting": "[4]", "value": "appeared to repress the modest downregulation"}, {"measurement": "T3-induced SERCA2 protein expression", "setting": "[4]; T3 (3 nM)", "value": "failed to alter"}, {"measurement": "ANF induction (secreted ANF in culture supernatants)", "setting": "[5]; low nanomolar concentrations of LMB (FIG. 1)", "value": "efficiently blocked ANF induction"}, {"measurement": "Cell size (cell volume, Coulter Counter)", "setting": "[6]; LMB 18.5 nM (FIG. 5)", "value": "diminished cell size"}, {"measurement": "Organized Sarcomeres", "setting": "[7]; stimulus FBS (5%)", "value": "−"}, {"measurement": "Organized Sarcomeres", "setting": "[7]; stimulus PE (20 μM)", "value": "−"}, {"measurement": "PE-induced downregulation of α-MyHC transcripts", "setting": "[8]", "value": "inhibited the subtle downregulation"}, {"measurement": "PE-induced β-MyHC mRNA expression", "setting": "[8]", "value": "repressed"}, {"measurement": "PE-mediated induction of ANF mRNA transcripts", "setting": "[8]", "value": "effectively blocked"}, {"measurement": "PE-mediated induction of α-skeletal actin (α-SK-actin) mRNA transcripts", "setting": "[8]", "value": "effectively blocked"}, {"measurement": "Ethidium bromide staining (compromised membranes)", "setting": "[9]; LMB-treated cells (Table 5)", "value": "not significantly stained by ethidium bromide"}, {"measurement": "Calcein dye retention (viability)", "setting": "[9]; LMB-treated cells vs control cells (Table 5)", "value": "retained calcein dye as effectively as control cells"}, {"measurement": "Calcein Fluorescence", "setting": "[9]; LMB 2.3 nM", "value": "+"}, {"measurement": "Ethidium Fluorescence", "setting": "[9]; LMB 2.3 nM", "value": "−"}, {"measurement": "Calcein Fluorescence", "setting": "[9]; LMB 4.6 nM", "value": "+"}, {"measurement": "Ethidium Fluorescence", "setting": "[9]; LMB 4.6 nM", "value": "−"}, {"measurement": "Calcein Fluorescence", "setting": "[9]; LMB 9.25 nM", "value": "+"}, {"measurement": "Ethidium Fluorescence", "setting": "[9]; LMB 9.25 nM", "value": "−"}, {"measurement": "Calcein Fluorescence", "setting": "[9]; LMB 18.5 nM", "value": "+"}, {"measurement": "Ethidium Fluorescence", "setting": "[9]; LMB 18.5 nM", "value": "−"}, {"measurement": "Agonist-induced increase in total cellular protein content", "setting": "[10]; PE or FBS, 72 hrs (text; FIG. 4 legend 48 hours), LMB 18.5 nM", "value": "effectively blocked"}]}, {"smiles": "Cc1ccc2[nH]c3c(c2c1)CCCC3NC(=O)CCl", "note": "(stereo not drawn) [compound 5219668, 2-chloro-N-(6-methyl-2,3,4,9-tetrahydro-1H-carbazol-1-yl)acetamide]", "values": [{"measurement": "ANF induction in response to PE (secreted ANF)", "setting": "[5]; PE (20 μM), 5219668 1.25 μM (FIG. 9)", "value": "efficiently blocked ANF induction"}, {"measurement": "Agonist-induced increase in cell size (cell volume)", "setting": "[6]; PE (20 μM), 5219668 1.25 μM (FIG. 11)", "value": "effectively blocked the increases"}, {"measurement": "Agonist-induced increase in protein synthesis (total cellular protein)", "setting": "[10]; PE (20 μM), 48 hours, 5219668 1.25 μM (FIG. 10)", "value": "effectively blocked the increases"}]}]}
